Measurements from publication PMC7701285, “A Strain-Specific Inhibitor of Receptor-Bound HIV-1 Targets a Pocket near the Fusion Peptide” (Cell Reports, 2020).

Target: B41 SOSIP.664 pseudotype parent; B41 (9032_08_A1) HIV-1 Env on pseudotyped virus (Human immunodeficiency virus 1, UniProt B3UES2)
Experiment: TZM-bl pseudovirus neutralization, luciferase
Assay type: cell-based
Conditions: average, 1 h preincubation at 37°C, 1% DMSO, 48 h, entry read-out

In the case of `Cc1ccc(-c2ccc(NC(=O)N3CCC4(CCO4)CC3)cc2)cc1` [GO52], the IC50 is reported as 1600 nM.
